Results as given in patent US20260042769A1, “TRIARYL AGONISTS OF ALPHA-2 ADRENERGIC RECEPTORS” (ALCEPTOR THERAPEUTICS, INC., priority 2023, published 2026).

Molecular target: T1, human ADRA2B receptor (Homo sapiens, UniProt P18089)
T1 construct: expressed in transfected cells
T1 sequence (P18089 1-450): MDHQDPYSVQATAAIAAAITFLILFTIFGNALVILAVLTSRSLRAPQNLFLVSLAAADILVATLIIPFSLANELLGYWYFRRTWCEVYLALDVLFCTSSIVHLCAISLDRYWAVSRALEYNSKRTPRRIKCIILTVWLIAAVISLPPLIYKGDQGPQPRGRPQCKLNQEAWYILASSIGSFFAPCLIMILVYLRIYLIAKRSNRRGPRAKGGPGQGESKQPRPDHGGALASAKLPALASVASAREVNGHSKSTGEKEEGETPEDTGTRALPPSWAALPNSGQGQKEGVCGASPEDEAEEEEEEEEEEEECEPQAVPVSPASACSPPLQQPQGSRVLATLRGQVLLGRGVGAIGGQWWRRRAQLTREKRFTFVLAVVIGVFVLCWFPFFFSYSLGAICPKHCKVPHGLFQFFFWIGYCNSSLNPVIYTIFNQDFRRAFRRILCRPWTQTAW
Assay: GTPγS agonist assay, ADRA2B receptor
Format: biochemical
Settings: read-out: GTPase - Human Alpha2B EC50
Procedure, shortened: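 CHO-K1 membranes stably expressing human ADRA2B (5 μg protein) in 20 mM HEPES, 10 mM MgCl2, 200 mM NaCl with GDP, preincubated 10 min at room temperature with compound. Binding reaction 1 h at 37° C; bound label collected on GF/C filters, washed, read by scintillation counting.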

## Cc1cccc(C(Cc2cnccn2)c2cnc[nH]2)c1C (stereo not shown) [Compound 94, 2-[2-(2,3-dimethylphenyl)-2-(1H-imidazol-4-yl)ethyl] pyrazine]
  EC50: 0.05 to 0.5 µM

## Cc1cc(C)nc(CC(c2cnc[nH]2)c2cccc(C)c2C)c1 (stereo not shown) [Compound 95, 2-[2-(2,3-dimethylphenyl)-2-(1H-imidazol-4-yl)ethyl]-4,6-dimethyl-pyridine]
  EC50: < 0.01 µM

## Cc1cccc(CC(c2cnc[nH]2)c2cccc(C)c2C)n1 (stereo not shown) [Compound 96, 2-[2-(2,3-dimethylphenyl)-2-(1H-imidazol-4-yl)ethyl]-6-methyl-pyridine]
  EC50: 0.01 to 0.05 µM

## Cc1cccc(C(Cc2ccncc2)c2cnc[nH]2)c1C (stereo not shown) [Compound 97, 4-[2-(2,3-dimethylphenyl)-2-(1H-imidazol-5-yl)ethyl] pyridine]
  EC50: < 0.01 µM

## COc1cccc(C[C@@H](c2c[nH]cn2)c2cccc(Cl)c2Cl)n1 [Compound 98, 4-[(R)-1-(2,3-dichlorophenyl)-2-(6-methoxy-2-pyridyl)ethyl] imidazole]
  EC50: < 0.01 µM

## COc1cccc(C[C@H](c2c[nH]cn2)c2cccc(Cl)c2Cl)n1 [Compound 99, 4-[(S)-1-(2,3-dichlorophenyl)-2-(6-methoxy-2-pyridyl)ethyl] imidazole]
  EC50: > 0.5 µM

## Cc1cccc([C@@H](Cc2ccon2)c2c[nH]cn2)c1C [Compound 100, 3-[(R)-2-(4-imidazolyl)-2-(2,3-xylyl)ethyl] isoxazole]
  EC50: 0.01 to 0.05 µM

## Cc1cccc([C@H](Cc2ccon2)c2c[nH]cn2)c1C [Compound 101, 3-[(S)-2-(4-imidazolyl)-2-(2,3-xylyl)ethyl] isoxazole]
  EC50: 0.05 to 0.5 µM

## Cc1nc(C[C@@H](c2cnc[nH]2)c2cccc(C)c2C)cs1 [Compound 102, 4-[(R)-2-(4-imidazolyl)-2-(2,3-xylyl)ethyl]-2-methyl-1,3-thiazole]
  EC50: 0.01 to 0.05 µM

## Cc1nc(C[C@H](c2c[nH]cn2)c2cccc(C)c2C)cs1 [Compound 103, 4-[(S)-2-(4-imidazolyl)-2-(2,3-xylyl)ethyl]-2-methyl-1,3-thiazole]
  EC50: > 0.5 µM

## Cc1cccc(C(Cc2ccnnc2)c2cnc[nH]2)c1C (stereo not shown) [Compound 104, 4-[2-(4-imidazolyl)-2-(2,3-xylyl)ethyl] pyridazine]
  EC50: > 0.5 µM

## Cc1cccc([C@@H](Cc2ccn(C)n2)c2c[nH]cn2)c1C [Compound 105, 3-[(R)-2-(4-imidazolyl)-2-(2,3-xylyl)ethyl]-1-methylpyrazole]
  EC50: > 0.5 µM

## Cc1cccc([C@H](Cc2ccn(C)n2)c2c[nH]cn2)c1C [Compound 106, 3-[(S)-2-(4-imidazolyl)-2-(2,3-xylyl)ethyl]-1-methylpyrazole]
  EC50: 0.01 to 0.05 µM

## FC(F)Oc1ccccc1C(Cc1ccccn1)c1c[nH]cn1 (stereo not shown) [Compound 107, 4-[1-(o-difluoro-methoxyphenyl) 2-(2-pyridyl)ethyl] imidazole]
  EC50: > 0.5 µM

## COc1ncc(C[C@@H](c2c[nH]cn2)c2cccc(Cl)c2C)cn1 [Compound 108, 5-[(R)-2-(3-chloro-2-tolyl)-2-(4-imidazolyl)ethyl]-2-methoxy-pyrimidine]
  EC50: 0.05 to 0.5 µM

## COc1ncc(C[C@H](c2c[nH]cn2)c2cccc(Cl)c2C)cn1 [Compound 109, 5-[(S)-2-(3-chloro-2-tolyl)-2-(4-imidazolyl)ethyl]-2-methoxy-pyrimidine]
  EC50: < 0.01 µM

## COc1cccc(C[C@@H](c2c[nH]cn2)c2cccc(OC)c2Cl)n1 [Compound 110, 4-[(R)-1-(2-chloro-3-methoxyphenyl)-2-(6-methoxy-2-pyridyl)ethyl] imidazole]
  EC50: < 0.01 µM

## COc1cccc(C[C@H](c2c[nH]cn2)c2cccc(OC)c2Cl)n1 [Compound 111, 4-[(S)-1-(2-chloro-3-methoxyphenyl)-2-(6-methoxy-2-pyridyl)ethyl] imidazole]
  EC50: 0.05 to 0.5 µM

## Cc1cccc(C(Cc2ncc(F)cn2)c2c[nH]cn2)c1C (stereo not shown) [Compound 112, 5-fluoro-2-[2-(4-imidazolyl)-2-(2,3-xylyl)ethyl] pyrimidine]
  EC50: 0.05 to 0.5 µM

## Cc1cccc(C(Cc2c(C)noc2C)c2c[nH]cn2)c1C (stereo not shown) [Compound 113, 4-[2-(4-imidazolyl)-2-(2,3-xylyl)ethyl]-3,5-dimethyl-isoxazole]
  EC50: 0.05 to 0.5 µM

## Cc1cc(CC(c2c[nH]cn2)c2cccc(C)c2C)no1 (stereo not shown) [Compound 114, 3-[2-(4-imidazolyl)-2-(2,3-xylyl)ethyl]-5-methyl-isoxazole]
  EC50: < 0.01 µM

## FC1(F)Oc2cccc(C(Cc3ccccn3)c3c[nH]cn3)c2O1 (stereo not shown) [Compound 115, 2,2-difluoro-4-[1-(4-imidazolyl)-2-(2-pyridyl)ethyl]-2H-1,3-benzodioxole]
  EC50: 0.05 to 0.5 µM

## Cc1cccc(C(Cc2cncs2)c2c[nH]cn2)c1C (stereo not shown) [Compound 116, 5-[2-(4-imidazolyl)-2-(2,3-xylyl)ethyl]-1,3-thiazole]
  EC50: 0.01 to 0.05 µM

## Cc1cccc(C(Cc2ncco2)c2c[nH]cn2)c1C (stereo not shown) [Compound 117, 2-[2-(4-imidazolyl)-2-(2,3-xylyl)ethyl]-1,3-oxazole]
  EC50: 0.05 to 0.5 µM

## Cc1cccc(C(Cc2cscn2)c2c[nH]cn2)c1C (stereo not shown) [Compound 118, 4-[2-(4-imidazolyl)-2-(2,3-xylyl)ethyl]-1,3-thiazole]
  EC50: 0.01 to 0.05 µM

## Cc1cccc([C@@H](Cc2cscn2)c2c[nH]cn2)c1C [Compound 119, 4-[(R)-2-(4-imidazolyl)-2-(2,3-xylyl)ethyl]-1,3-thiazole]
  EC50: < 0.01 µM

## Cc1cccc([C@H](Cc2cscn2)c2c[nH]cn2)c1C [Compound 120, 4-[(S)-2-(4-imidazolyl)-2-(2,3-xylyl)ethyl]-1,3-thiazole]
  EC50: > 0.5 µM

## FC1(F)Oc2cccc([C@@H](Cc3ccccn3)c3c[nH]cn3)c2O1 [Compound 121, 4-[(R)-1-(4-imidazolyl)-2-(2-pyridyl)ethyl]-2,2-difluoro-2H-1,3-benzodioxole]
  EC50: 0.05 to 0.5 µM

## FC1(F)Oc2cccc([C@H](Cc3ccccn3)c3c[nH]cn3)c2O1 [Compound 122, 4-[(S)-1-(4-imidazolyl)-2-(2-pyridyl)ethyl]-2,2-difluoro-2H-1,3-benzodioxole]
  EC50: > 0.5 µM

## Cc1nc(C)c(C[C@@H](c2c[nH]cn2)c2cccc(C)c2C)s1 [Compound 123, 5-[(R)-2-(4-imidazolyl)-2-(2,3-xylyl)ethyl]-2,4-dimethyl-1,3-thiazole]
  EC50: < 0.01 µM

## Cc1nc(C)c(C[C@H](c2c[nH]cn2)c2cccc(C)c2C)s1 [Compound 124, 5-[(S)-2-(4-imidazolyl)-2-(2,3-xylyl)ethyl]-2,4-dimethyl-1,3-thiazole]
  EC50: 0.01 to 0.05 µM

## COc1cccc(CC(c2c[nH]cn2)c2cccc3c2OC(F)(F)O3)n1 (stereo not shown) [Compound 125, 2,2-difluoro-4-[1-(4-imidazolyl)-2-(6-methoxy-2-pyridyl)ethyl]-2H-1,3-benzodioxole]
  EC50: 0.01 to 0.05 µM

## Cc1cccc(C(Cc2cocn2)c2c[nH]cn2)c1C (stereo not shown) [Compound 126, 4-[2-(4-imidazolyl)-2-(2,3-xylyl)ethyl]-1,3-oxazole]
  EC50: < 0.01 µM

## Cc1cccc(C(Cc2ccnn2C)c2c[nH]cn2)c1C (stereo not shown) [Compound 127, 5-[2-(4-imidazolyl)-2-(2,3-xylyl)ethyl]-1-methyl-pyrazole]
  EC50: < 0.01 µM

## Cc1cccc([C@@H](Cc2cncs2)c2c[nH]cn2)c1C [Compound 128, 5-[(R)-2-(4-imidazolyl)-2-(2,3-xylyl)ethyl]-1,3-thiazole]
  EC50: 0.05 to 0.5 µM

## Cc1cccc([C@H](Cc2cncs2)c2c[nH]cn2)c1C [Compound 129, 5-[(S)-2-(4-imidazolyl)-2-(2,3-xylyl)ethyl]-1,3-thiazole]
  EC50: < 0.01 µM

## Cc1cccc([C@@H](Cc2ccnn2C)c2c[nH]cn2)c1C [Compound 130, 5-[(R)-2-(4-imidazolyl)-2-(2,3-xylyl)ethyl]-1-methyl-pyrazole]
  EC50: < 0.01 µM

## Cc1cccc([C@H](Cc2ccnn2C)c2c[nH]cn2)c1C [Compound 131, 5-[(S)-2-(4-imidazolyl)-2-(2,3-xylyl)ethyl]-1-methyl-pyrazole]
  EC50: 0.01 to 0.05 µM

## Cc1csc(CC(c2c[nH]cn2)c2cccc(C)c2C)n1 (stereo not shown) [Compound 132, 2-[2-(4-imidazolyl)-2-(2,3-xylyl)ethyl]-4-methyl-1,3-thiazole]
  EC50: < 0.01 µM

## COc1ccc(CC(c2c[nH]cn2)c2cccc(C)c2C)nn1 (stereo not shown) [Compound 133, 3-[2-(4-imidazolyl)-2-(2,3-xylyl)ethyl]-6-methoxy-pyridazine]
  EC50: 0.01 to 0.05 µM

## Cc1cccc(C(Cc2cnco2)c2c[nH]cn2)c1C (stereo not shown) [Compound 134, 5-[2-(4-imidazolyl)-2-(2,3-xylyl)ethyl]-1,3-oxazole]
  EC50: < 0.01 µM

## Cc1cc(C[C@@H](c2c[nH]cn2)c2cccc(C)c2C)no1 [Compound 135, 3-[(R)-2-(4-imidazolyl)-2-(2,3-xylyl)ethyl]-5-methyl-isoxazole]
  EC50: > 0.5 µM

## Cc1cc(C[C@H](c2c[nH]cn2)c2cccc(C)c2C)no1 [Compound 136, 3-[(S)-2-(4-imidazolyl)-2-(2,3-xylyl)ethyl]-5-methyl-isoxazole]
  EC50: < 0.01 µM

## Cc1cccc([C@@H](Cc2cccnn2)c2c[nH]cn2)c1F [Compound 137, 3-[(R)-2-(2-fluoro-3-tolyl)-2-(4-imidazolyl)ethyl] pyridazine]
  EC50: 0.05 to 0.5 µM

## Cc1cccc([C@H](Cc2cccnn2)c2c[nH]cn2)c1F [Compound 138, 3-[(S)-2-(2-fluoro-3-tolyl)-2-(4-imidazolyl)ethyl] pyridazine]
  EC50: > 0.5 µM

## COc1c(C)cccc1C(Cc1ccnc(C)n1)c1c[nH]cn1 (stereo not shown) [Compound 148, 4-[2-(4-imidazolyl)-2-(2-methoxy-3-tolyl)ethyl]-2-methylpyrimidine]
  EC50: 0.05 to 0.5 µM
